Entries after “also recorded” stand apart in the source; their conditions may differ. Like-named read-outs stand apart in the source and are kept apart here.
Legend:
Strain 264 E. Coli = assay: non-specific resistivity of mice infected with E. Coli; assay type: in vivo, Strain C57BL6 mice; design: Mean lifetime: unit not given beside the values
Method: Doses of the preparation ranging from 200 to 0.2 μg were injected intraperitoneally at ten-fold intervals in 0.5 ml of physiologic solution to Strain C57BL6 mice two hours before their infecting. Mice were infected with S. Typhi in a dose of 1·10^4 microbial cells; another group of animals was infected with Strain 264 E. coli in a dose of […] microbial cells. Mice infected with the same microbial culture, but receiving no preparation, were used a controls. Lethal outcomes in mice were recorded every day for a period of 10 days.

[1] = test system: natural killers (CD3−, CD16+ and CD56+); assay: cytotoxic activity of natural killers against K-562 cells; assay type: cell-based, human
Method: Labeled cells of […] of myeloblastoid Strain K-562, as well as mononuclear cells of 10 healthy blood donors and 10 patients with various diseases with low and high levels of cytotoxicity, were used for the study of effects of various concentrations of the preparation on cytotoxic activity of natural killers (CD3^−, CD16^+ and CD56^+).
The used Strain K-562 cells to effector cells ratio was 1:25 (100 μl of labeled cells and 100 μl of mononuclear cells). The studies were carried out using 96-well plates; incubation for 16 to 24 hours in a CO2-incubator at 37° C. was carried out. Then, the contents of the wells was transferred to filters, washed, dried and placed in solution with scintillation liquid with consecutive determination of index using a β-counter. Cytotoxic index (CI) was calculated using the following formula: [formula]
A=the target cells radioactivity in the presence of effector cells;
B=radioactivity after cells treatment with […] (maximum value);
C=radioactivity of target cells in the absence of effector cells.

[2] = test system: cellular immune response (DHR to ram erythrocytes); assay: delayed hypersensitivity reaction (DHR) in mice; assay type: in vivo
Method: To evaluate the effect of the preparation on cellular immunity reaction, delayed hypersensitivity reaction (DHR) was used. The mice were sensitized by subcutaneous injection of 1·10^7 ram erythrocytes contained in a volume of 20 μl. Doses of the preparation ranging from 0.2 to 2,000 μg were injected at ten-fold intervals simultaneously with sensitizing and shocking dose of the antigen. Shocking dose of ram erythrocytes (1·10^8) was injected under aponeurotic plate of left hind paw on the 5th day after sensitization. Injection of 20 μl of physiologic solution in the right paw served as control. Intensity of inflammatory reaction was recorded 24 hours after the administration of shocking dose of the antigen. For this purpose, the mice were killed and, immediately after this, both paws were amputated at the level of ankle joint and weighed on torsion balance. Reaction index (RI) was determined as the difference of masses of study (S) and control (C) paws using the following formula: [formula]

Method for spleen cell culture: Effects of the compounds on lymphoid cells proliferation and interleukin-2 induction in vitro were evaluated with the use of Strain BalB/c mice weighing 16 to 18 g. Animals of control and study groups were matched by sex and weight. Each dose of the preparation was tested on 10 animals; as a whole, more than 800 mice have been studied.
Spleens of the animals were used for carrying out the immunologic reactions. The organs were cut and homogenized in a glass homogenizer. […] The suspensions were centrifuged in a K23 centrifuge at 1,500 rpm at 4° C. for 10 minutes.
The suspensions were diluted 100-fold with 3% acetic acid contrasted with methylene blue, and cells were counted in Goryaev's chamber. Cell viability was evaluated with aid of 0.1% trypan blue in physiologic solution.

Cl.Nc1cccc2c(=O)[nH][nH]c(=O)c12 [5-amino-2,3-dihydrophthalazine-1,4-dione hydrochloride]
lymphoid cells proliferation (spleen cell culture; 2.5 μg/ml, ConA): 195 ± 27 | lymphoid cells proliferation (spleen cell culture; 2.5 μg/ml, LPS): 251 ± 44 | lymphoid cells proliferation (spleen cell culture; 2.5 μg/ml, no mitogen): 249 ± 93 | lymphoid cells proliferation (spleen cell culture; 12.5 μg/ml, ConA): 178 ± 28 | lymphoid cells proliferation (spleen cell culture; 12.5 μg/ml, LPS): 256 ± 40 | lymphoid cells proliferation (spleen cell culture; 12.5 μg/ml, no mitogen): 369 ± 56 | mitogenic properties (spleen cell culture; 50 μg/ml to 12.5 mg/ml): no mitogenic properties | lymphoid cells proliferation (spleen cell culture; 50 μg/ml, ConA): 11860 ± 1566 | lymphoid cells proliferation (spleen cell culture; 50 μg/ml, LPS): 13232 ± 928 | lymphoid cells proliferation (spleen cell culture; 50 μg/ml, no mitogen): 2576 ± 237 | lymphoid cells proliferation (spleen cell culture; 500 μg/ml, ConA): 1323 ± 192 | lymphoid cells proliferation (spleen cell culture; 500 μg/ml, LPS): 3870 ± 308 | lymphoid cells proliferation (spleen cell culture; 500 μg/ml, no mitogen): 1763 ± 94 | spontaneous proliferation of spleen cells and proliferation induced by ConA and LPS (spleen cell culture; higher concentrations): inhibited

Nc1cccc2c(=O)[nH][nH]c(=O)c12.[Ca] [calcium salt of 5-amino-2,3-dihydrophthalazine-1,4-dione]
Mean lifetime (Strain 264 E. Coli; dose 0.2 μg): 2.2 | Number of lethal outcomes, day 1 (Strain 264 E. Coli; dose 0.2 μg i.p., 10 mice): 4 | Number of lethal outcomes, day 3 (Strain 264 E. Coli; dose 0.2 μg i.p., 10 mice): 6 | increase in lifetime of animals infected with E. Coli (Strain 264 E. Coli; dose 0.2 μg, versus controls): 2.2 fold | Mean lifetime (Strain 264 E. Coli; dose 2 μg): 1.0 | Number of lethal outcomes, day 1 (Strain 264 E. Coli; dose 2 μg i.p., 10 mice): 10 | Mean lifetime (Strain 264 E. Coli; dose 20 μg): 1.0 | Number of lethal outcomes, day 1 (Strain 264 E. Coli; dose 20 μg i.p., 10 mice): 10 | Mean lifetime (Strain 264 E. Coli; dose 200 μg): 1.0 | Number of lethal outcomes, day 1 (Strain 264 E. Coli; dose 200 μg i.p. two hours before infecting, 10 mice): 10 | effects on the resistivity of mice infected with E. Coli (Strain 264 E. Coli; doses 200 to 2 μg): no effects

CNc1cccc2c(=O)[nH][nH]c(=O)c12.[Na] [sodium salt of 5-methylamino-2,3-dihydrophthalazine-1,4-dione]
Cytotoxic index level, % (M) ([1]; 2.5 μg/ml, High control level of CI): 57 ± 0.7% | Cytotoxic index level, % (M) ([1]; 2.5 μg/ml, Low control level of CI): 34 ± 1.3% | Cytotoxic index level, % (M) ([1]; 2.5 μg/ml, Medium control level of CI): 41.9 ± 0.9% | CI, % ([1]; 2.5 μg/ml, normal level of CI): 41.9 ± 2.8% | Cytotoxic index level, % (M) ([1]; 5.0 μg/ml, High control level of CI): 54 ± 0.8% | Cytotoxic index level, % (M) ([1]; 5.0 μg/ml, Low control level of CI): 30 ± 1.2% | CI, % ([1]; 5.0 μg/ml, normal level of CI): 38.8 ± 3.1% | CI, % ([1]; 10.0 μg/ml, normal level of CI): 40.8 ± 3.0% | CI, % ([1]; 25.0 μg/ml, normal level of CI): 41.4 ± 3.0% | CI, % ([1]; 50.0 μg/ml, normal level of CI): 39.1 ± 4.0% | CI, % ([1]; 75.0 μg/ml, normal level of CI): 37.7 ± 4.1% | CI, % ([1]; 150.0 μg/ml, normal level of CI): 41.0 ± 3.5% | CI, % ([1]; 300.0 μg/ml, normal level of CI): 39.0 ± 3.1% | cytotoxicity of natural killers ([1]; 2.5 and 5.0 μg/ml, high initial level of CI): statistically significant inhibition | functional activity of natural killers ([1]; 2.5 and 5.0 μg/ml, low initial level of CI): statistically significant stimulation | modification of natural killers cytotoxicity ([1]; 2.5 to 300 μg/ml, normal level of CI): did not cause significant modification

Nc1ccc2c(=O)[nH][nH]c(=O)c2c1.[Na] [sodium salt of 6-amino-2,3-dihydrophthalazine-1,4-dione]
Reaction index ([2]; 2 μg, Strain C57BL6 mice): 19 ± 9 | Reaction index ([2]; 2 μg, Strain CBA mice): 11 ± 8 | Reaction index ([2]; 20 μg, Strain C57BL6 mice): 16 ± 9 | Reaction index ([2]; 20 μg, Strain CBA mice): 10 ± 5 | Reaction index ([2]; 200 μg, Strain C57BL6 mice): 15 ± 6 | Reaction index ([2]; 200 μg, Strain CBA mice): 2 ± 1.5 | development of DHR ([2]; 200 μg, high-reaction Strain CBA mice): inhibition of DHR; also recorded: suppressed | development of DHR ([2]; 20 to 2 μg, mice of both strains): no effect | reaction index (trend) ([2]; mice of both strains, as the dose of the preparation decreased): tendency to increase

Reference: patent publication US20030195183A1, “Method for correcting immune system of live body” (priority 2000, published 2003)
